Source: PMC8877822, “Interrogation of the Structure–Activity Relationship of a Lipophilic Nitroaromatic Prodrug Series Designed for Cancer Gene Therapy Applications” (Pharmaceuticals, 2022)

What was measured:
[1] = LogD7.4 by low-volume octanol/PBS shake-flask method; type: physicochemical; conditions: n-octanol/PBS; octanol-water partition coefficient, shake-flask method at pH 7.4
Protocol: Distribution ratios (LogD7.4) were determined by a low-volume octanol/PBS shake-flask method. Briefly, saturated solutions of octanol and PBS were prepared by mixing equal volumes of n-octanol and PBS (pH 7.4) before being left for three days. The octanol and PBS phases were then carefully separated and left to stand for at least 24 h. Stock solutions (0.1–0.5 mM) of each compound were prepared in octanol saturated with PBS. The stock solutions were diluted with octanol saturated with PBS containing and inter-assay control (acridone) to a final compound concentration of 50 μM. Aliquots (450 μL) were then taken in triplicate, and 450 μL of PBS saturated with octanol was added into amber tubes. The tubes were then sealed in parafilm and rotated for 90 min at 30 rpm to equilibrate. After centrifugation (15,000× g, 5 min, 20°C) the octanol and PBS phases were separated into different tubes and the octanol phase diluted with methanol (1:5 v/v). Both phases were analyzed by HPLC (diode-array detector at 364 ± 10 nm) by injecting 50 μL of the PBS phase and 15 μL of the diluted octanol phase. The results were then expressed as the log ratio of the peak areas obtained from the octanol and PBS phases corrected for dilution and injection volume.

100% HCT116 AKR1C3 MCLs = assay: 3D multicellular layer (MCL) assay, 100% HCT116 AKR1C3; type: cell-based, human; conditions: 10 µM prodrug, five hours
Protocol: Similar to the 3D NfsA_Ec screen, increased lipophilicity also tracked with increased LCK in 100% AKR1C3-expressing MCLs (R = 0.78, R^2 = 0.61). […] These three lead compounds were taken forward into in vivo studies.
Multicellular layers (MCLs) were grown, and bystander effect assays were performed as previously reported.
Figure 4 Lipophilic structure–activity relationship for AKR1C3 in three dimensions. (A) Plating efficiency in 100% HCT116 WT and 100% HCT116 AKR1C3 MCLs exposed to 10 µM prodrug for five hours before dissociation and plating to determine clonogenic survival. (B) Correlation between Log cell kill and LogD7.4. R = 0.78, R^2 = 0.61. Log cell kill = Log CS (control)–Log CS (treated), where CS is the number of clonogenic survivors per MCL.

H1299 WT cells = assay: Anti-proliferative IC50 assay, H1299 WT cells; type: cell-based; conditions: Homo sapiens, NCI-H1299, 4 hour drug exposure, regrowth for five days
Protocol: (§1) The anti-proliferative IC50 was determined as the concentration of prodrug required for 50% inhibition of cell growth, following drug exposure for four hours, then five days regrowth in the absence of drug. Assays were performed under oxic or anoxic conditions as described previously, the latter by using a 5% H2/palladium catalyst scrubbed Bactron anaerobic chamber (Sheldon Manufacturing, Cornelius, OR, USA) to achieve severe anoxia (<10 ppm O2 gas phase) during prodrug exposure.
(§2) Supplementary Table S2. In vitro anti-proliferative activity of the three lead prodrug compounds in H1299 cells expressing E. coli NfsA. IC50 values were determined as the concentration of drug required to inhibit cell growth by 50% of untreated controls following 4 hour drug exposure, with washing and regrowth for five days.
(§3) Compound WT NfsA_Ec Ratio

[2] = tested on: H1299 cells expressing E. coli NfsA; assay: Anti-proliferative IC50 assay, H1299 cells expressing E. coli NfsA; type: cell-based
Protocol: as §1, §2, §3

[3] = target: T1, purified His6-tagged NfsA_Ec (Escherichia coli, UniProt P17117); assay: Steady-state kinetics of reduction by purified NfsA_Ec; type: biochemical, E. coli; conditions: apparent, measured at 250 µM NADPH
T1 construct: His6; made in house
T1 sequence (P17117 1-240): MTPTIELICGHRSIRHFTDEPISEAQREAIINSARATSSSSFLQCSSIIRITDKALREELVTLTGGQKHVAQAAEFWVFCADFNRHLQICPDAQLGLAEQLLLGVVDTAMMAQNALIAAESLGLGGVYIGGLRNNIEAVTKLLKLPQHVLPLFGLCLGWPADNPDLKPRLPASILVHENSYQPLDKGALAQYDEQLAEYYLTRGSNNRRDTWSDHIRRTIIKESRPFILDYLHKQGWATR
From the text: (§4) We next sought to characterize the NfsA_Ec-mediated conversion of lead prodrug 6 in steady-state kinetics assays using purified His6-tagged NfsA_Ec. […] We therefore conducted a preliminary assessment of whether alternative bacterial NTR enzymes might hold promise for further GDEPT improvements.
Supplementary Table S3. Steady-state kinetic parameters* for reduction of compound 6 and PR-104A by NfsA_Ec.
Compound Km (µM) kcat (s-1) kcat/Km (mM-1 s-1)
* Apparent kinetic parameters, measured at 250 µM NADPH
# As previously reported by
NfsA_Ec was purified as a His6-tagged recombinant protein as previously described. Kinetics assays were performed in 60 µl in UVettes (Eppendorf), using the 2 mm light path length. Reactions contained 10 mM Tris-Cl (pH 7.0), 4% DMSO, 0.25 mM NADPH and varying concentrations of PR - 104A or compound 6. Reactions were initiated by addition of 6 µl enzyme and changes in absorbance were measured for 20 s (during linearity). For calculation of Km and kcat, substrate concentrations were varied from ~0.2 x Km to 5 x Km. Molar extinction coefficients of 4,800 or 6,000 M-1 cm-1 were used for compound 6 and PR-104A, respectively. Non-linear regression analysis and Michaelis-Menten curve fitting was performed using Sigmaplot 10.0 (Systat Software Inc.).

[4] = tested on: 47 different NTR candidates; assay: GFP-SOS (DNA damage) response in E. coli SOS-R4 reporter strains expressing nitroreductase candidates; type: cell-based; conditions: 20 µM, six-hour exposure, library of E. coli reporter cells
From the text: as §4
Supplementary Figure S2. Identification of alternative nitroreductases able to activate compound 6. Bar graph displaying the fold-induction of GFP in the DNA-damage responsive E. coli reporter strain SOS-R4, following six-hour exposure to 20 µM of compound 6, compared with unchallenged replicates. Individual strains expressed nitroreductase candidates derived from different bacteria, identified by a two-letter suffix as explained in the Materials and Methods. The background SOS response induced by compound 6 in an empty plasmid control strain is indicated by the dashed line. […]
The GFP-SOS response was determined in SOS-R4 [16] by inoculating 200 μl aliquots of LBASG (lysogeny broth supplemented with 100 μgml-1 ampicillin, 50 μgml-1 spectinomycin and 0.2% glucose (w/v)) with selected SOS-R4 nitroreductase-over-expressing strains and incubating overnight at 30 °C, 200 rpm. […] Control and challenge plates were incubated at 30 °C, 200 rpm for 6 h, at which point OD600 and GFP fluorescence (excitation 490 nm/ emission 503 nm) were measured on an Enspire™ 2300 Multilabel Reader (Perkin Elmer, Waltham, MA). […]

[5] = tested on: mixed H1299 xenograft containing 28% NfsA_Ec cells and 72% WT cells; assay: Tumor growth delay assay, mixed H1299 xenograft; type: in vivo, mice; conditions: single i.p. dose: PR-104 388 µmol/kg; 1-P 1330 µmol/kg; 2-P 750 µmol/kg; 6-P 1330 µmol/kg
Protocol: These ratios were broadly similar to those observed in HCT116 cells (Figure 2). A mixed H1299 xenograft model containing a minority percentage (28 ± 3.3%) of NfsA_Ec-expressing cells was used in order to rank the efficacy of the prodrugs in vivo. A model such as this necessitates the presence of a robust bystander effect to achieve a tumor growth delay. Tumor-bearing mice were administered a single intraperitoneal dose of prodrugs 1-P, 2-P, and 6-P at the H1299 tumor-bearing MTD. PR-104 was administered at 388 µmol/kg, the human equivalent dose (HED) in mice that provides a plasma AUCfree of PR-104A (38 µM-h) that equates to the human Q3W MTD of 1100 mg/m^2 [22].
An estimated starting dose was determined from related compounds. Animals were promptly euthanized if body weight loss exceeded 20% or if there were clinical signs of severe morbidity. The MTD was defined as the highest dose, at which all animals survived (death rate < 1/6) with no unacceptable morbidity, and where the next dose increment had caused at least one death. Tumors were inoculated onto the flanks of NIH-III nude mice by subcutaneous injection of 10^7 H1299 cells. Tumor-bearing mice were randomized to treatment groups (n = 5 mice per group) when tumors reached treatment size (300–350 mm^3) and injected with a single intraperitoneal dose of pre-prodrug. Tumor size and body weights were measured regularly. Tumor volume was calculated as π(Lxw^2)/6, where L is the major axis and w is the perpendicular minor axis. Animals were euthanized when the tumor volume had increased fourfold relative to pre-treatment volume (RTV4, survival endpoint) or if body weight loss exceeded 20% of the pre-treatment value. Kaplan–Meier plots were constructed, and median time to endpoint was calculated. Treatment efficacy was assessed by comparing the median survival time with untreated animals using the Log-rank test p-test (Sigmaplot version 11.0).
Figure 5 In vivo efficacy of the three lead pre-prodrug compounds in a mixed H1299 xenograft containing 28% NfsA_Ec cells and 72% WT cells. (A) Tumor growth and (B) survival analysis of mice bearing 250 mm^3 H1299 tumors treated with a single intraperitoneal dose of prodrug on day 0. N = 5 animals per group. Control = PBS, PR-104 = 388 µmol/kg; 1-P = 1330 μmol/kg; 2-P = 750 μmol/kg; and 6-P = 1330 μmol/kg. Survival endpoint was 4× start volume (RTV4).

SiHa xenografts = assay: Tumor excision assay, clonogenic cell kill of SiHa xenografts; type: in vivo, mice; conditions: 18 h after treatment, PR-104 380 µmol/kg i.p., 6-P 1330 µmol/kg i.p.
Protocol: The sensitivity of four cancer cell lines to prodrug 6 was determined under aerobic or anoxic conditions using an anti-proliferative IC50 assay. […] We also evaluated the hypoxic activity of 6-P versus PR-104 in vivo using a SiHa xenograft model (Figure 6B).
When tumors reached treatment size (>400 mm^3), mice were treated with drug by a single intraperitoneal injection of pre-prodrug or vehicle. Mice treated with ionizing radiation were exposed to 10 Gray prior to drug treatment, using a cobalt-60 source from an Eldorado G unit. Animals were euthanized 18 h after drug treatment, and tumors were excised and homogenized using sterile scissors until a fine mince was obtained. Following enzymatic dissociation (2.5 mg/mL pronase, 1 mg/mL collagenase, and 0.2 mg/mL DNAase in αMEM + 10% FBS + 1% P/S, 1 mL per 50 mg), cells were plated at concentrations of 10^2–10^5 cells per 60 mm dish and grown for 10 days before colonies were stained with methylene blue (2 g/L in 50% aqueous alcohol). Colonies containing >50 cells were counted as clonogenic survivors. From these values, plating efficiency (colonies/cells plated), number of clonogens per gram of tumor tissue (plating efficiency × total cells), and log cell kill relative to vehicle treated controls (log clonogens per gram) were calculated. Statistical analysis was undertaken using Holm–Sidak’s one-way ANOVA (Sigmaplot version 11.0).
(A) In vitro anti-proliferative activity of 6 in various cancer cell lines under aerobic and anoxic conditions. IC50 values were determined as the concentration of drug required to inhibit cell growth by 50% of untreated controls following 4 h drug exposure and five days regrowth (mean ±SEM of three or more independent determinations). (B) Clonogenic cell kill of SiHa xenografts 18 h after treatment with hypoxia activated prodrugs PR-104 (380 µmol/kg, i.p.) or 6-P (1330 µmol/kg, i.p.) with or without 10 Gy radiation.

[6] = cited from earlier work

SMILES	logD at 90 min [1]	Log cell kill (LCK) (100% HCT116 AKR1C3 MCLs)	IC50 (H1299 WT cells)	IC50 ([2]; Escherichia coli, NCI-H1299, H1299 NfsA_Ec, 4 hour drug exposure, regrowth for five days)	WT:NfsA_Ec IC50 ratio ([2]; H1299 WT vs H1299 NfsA_Ec)	kcat [3]	Activation of the SOS (DNA damage repair) response [4]	Tumor growth delay (median time to RTV4) compared to untreated controls [5]	Log cell kill, in combination with radiotherapy (SiHa xenografts; 10 Gy radiation)	Log cell kill, single agent (SiHa xenografts)	Human Q3W MTD [6]
CCS(=O)(=O)c1cc([N+](=O)[O-])c(C(=O)N(C)CCO)cc1N(CCBr)CCBr [Compound 6, 5-(Bis(2-bromoethyl)amino)-N-(2-hydroxyethyl)-N-methyl-4-(ethylsulfonyl)-2-nitrobenzamide]	1.6	≤ 0.11	222 ± 39 µM	0.47 ± 0.1 µM	472 fold	5.5 ± 0.3 s⁻¹	broadly activated by members of both the NfsA and NfsB nitroreductase families				
CS(=O)(=O)OCCN(CCBr)c1c(C(=O)NCCOP(=O)(O)O)cc([N+](=O)[O-])cc1[N+](=O)[O-] [PR-104, 2-[(2-bromoethyl)-2,4-dinitro-6-[[[2-(phosphonooxy)ethyl]amino]carbonyl]anilino]ethyl methanesulfonate, reference compound]								33%	3.72	1.38	1100 mg/m^2
